In publication PMC8584173, “The Cytotoxic Effect of Copper (II) Complexes with Halogenated 1,3-Disubstituted Arylthioureas on Cancer and Bacterial Cells” (International Journal of Molecular Sciences, 2021):

Key:
[1] = test system: SW620 (human metastatic colon cancer); assay: MTT cytotoxicity assay, SW620; format: cell-based; conditions: SW620, 72 h
Protocol: The human primary (SW480), metastatic (SW620) colon cancer, metastatic prostate cancer (PC3) and human immortal keratinocyte (HaCaT) cell lines were purchased from the American Type Culture Collection (ATCC, Rockville, USA). The cells were cultured in medium according to protocols (MEM for SW480 and SW620, RPMI 1640 for PC3 and DMEM for HaCaT cells) supplemented with 10% fetal bovine serum (FBS), penicillin (100 U/mL) and streptomycin (100 μg/mL) and cultured in 37 °C/ 5% CO2 humidified incubator. The cells were cultured until appropriate confluence was achieved (80–90%). Next, they were harvested by treatment with 0.25% trypsin (Gibco Life Technologies, USA) and used for studies.
Cells without studied compounds in medium were used as a control.
The cell viability was assessed by determination of MTT salt (3-(4,5-dimethylthiazol-2-yl)-2,5-diphenyltetrazolium bromide) conversion by mitochondrial dehydrogenase. MTT assay was performed as previously described. Experiments were repeated three times. Cell viability was presented as a percentage of MTT reduction in the treated cells versus the control cells. Number of viable cells cultured without studied compounds was assumed to be 100%. Decreased relative MTT level means decreased cell viability.

S. aureus ATCC 25923 = assay: MIC, twofold serial microdilution; format: cell-based, Staphylococcus aureus; conditions: S. aureus ATCC 25923, 18 h, 35 °C
Protocol: (§1) The antimicrobial activity of the compounds was tested on Gram-positive bacteria (Staphylococcus aureus NCTC 4163, Staphylococcus aureus ATCC 25923, Staphylococcus aureus ATCC 6538, Staphylococcus aureus ATCC 29213, Staphylococcus epidermidis ATCC 12228, Staphylococcus epidermidis ATCC 35984), Gram-negative rods (Escherichia coli ATCC 10538, Escherichia coli ATCC 25922, Pseudomonas aeruginosa ATCC 15442, Pseudomonas aeruginosa ATCC 27863) and yeasts (Candida albicans ATCC 10231, Candida albicans ATCC 90028, Candida parapsilosis ATCC 22019). Hospital methicillin-resistant strains of Staphylococcus aureus and Staphylococcus epidermidis were obtained from the collection of the Department of Pharmaceutical Microbiology, Medical University of Warsaw, Poland.
(§2) Antifungal activities were assessed using Mueller–Hinton agar + 2% glucose and 0.5 µg/mL methylene blue dye medium. Sterile filter paper discs (9 mm diameter, Whatman Number 3 chromatography paper) were dripped with tested compound solutions (in dimethylsulfoxide, DMSO) to load 400 μg of a given compound per disc. Dry discs were placed on the surface of appropriate agar medium. The results (diameter of the growth inhibition zone) were read after 18 h of incubation at 35 °C. Minimal inhibitory concentration (MIC) was tested by the twofold serial microdilution method (in 96-well microtiter plates) using Mueller–Hinton broth medium (Beckton Dickinson) for bacteria or RPMI-1640 medium for Candida species, according to CLSI guidelines. The stock solution of tested agent was prepared in DMSO and diluted in sterile water. […] The final inoculum of all studied microorganisms was 10^5 CFU/ mL^−1 (colony forming units per ml). Minimal inhibitory concentrations (the lowest concentration of a tested agent that prevents visible growth of a microorganism) were read after 18 h (bacteria) or 24 h (yeasts) of incubation at 35 °C.

S. aureus ATCC 29213 = assay: MIC, twofold serial microdilution; format: cell-based, Staphylococcus aureus; conditions: S. aureus ATCC 29213, 18 h, 35 °C
Protocol: as §1, §2

S. aureus ATCC 6538 = assay: MIC, twofold serial microdilution; format: cell-based, Staphylococcus aureus; conditions: S. aureus ATCC 6538, 18 h, 35 °C
Protocol: as §1, §2

S. aureus NCTC 4163 = assay: MIC, twofold serial microdilution; format: cell-based, Staphylococcus aureus; conditions: S. aureus NCTC 4163, 18 h, 35 °C
Protocol: as §1, §2

P. aeruginosa ATCC 15442 = assay: MIC, twofold serial microdilution; format: cell-based, Pseudomonas aeruginosa; conditions: P. aeruginosa ATCC 15442, 18 h, 35 °C
Protocol: as §1, §2

P. aeruginosa ATCC 27853 = assay: MIC, twofold serial microdilution; format: cell-based, Pseudomonas aeruginosa; conditions: P. aeruginosa ATCC 27853, 18 h, 35 °C
Protocol: as §1, §2

[2] = test system: C. parapsilosis ATCC 22019; assay: MIC, twofold serial microdilution; format: cell-based, Candida parapsilosis; conditions: C. parapsilosis ATCC 22019, 24 h, 35 °C
Protocol: as §1, §2

S. aureus 481 = assay: MIC, hospital MRSA strain; format: cell-based, Staphylococcus aureus; conditions: for times more active than ciprofloxacin: S. aureus 481; for MIC: hospital MRSA S. aureus 481
Protocol: as §1, §2

S. aureus 495 = assay: MIC, hospital MRSA strain; format: cell-based, Staphylococcus aureus; conditions: hospital MRSA S. aureus 495
Protocol: as §1, §2

S. aureus 496 = assay: MIC, hospital MRSA strain; format: cell-based, Staphylococcus aureus; conditions: hospital MRSA S. aureus 496
Protocol: as §1, §2

S. aureus 497 = assay: MIC, hospital MRSA strain; format: cell-based, Staphylococcus aureus; conditions: hospital MRSA S. aureus 497
Protocol: as §1, §2

S. aureus 498 = assay: MIC, hospital MRSA strain; format: cell-based, Staphylococcus aureus; conditions: hospital MRSA S. aureus 498
Protocol: as §1, §2

S. aureus 514 = assay: MIC, hospital MRSA strain; format: cell-based, Staphylococcus aureus; conditions: hospital MRSA S. aureus 514
Protocol: as §1, §2

S. aureus 522 = assay: MIC, hospital MRSA strain; format: cell-based, Staphylococcus aureus; conditions: hospital MRSA S. aureus 522
Protocol: as §1, §2

S. aureus 537 = assay: MIC, hospital MRSA strain; format: cell-based, Staphylococcus aureus; conditions: hospital MRSA S. aureus 537
Protocol: as §1, §2

S. aureus 567 = assay: MIC, hospital MRSA strain; format: cell-based, Staphylococcus aureus; conditions: hospital MRSA S. aureus 567
Protocol: as §1, §2

S. aureus 568 = assay: MIC, hospital MRSA strain; format: cell-based, Staphylococcus aureus; conditions: hospital MRSA S. aureus 568
Protocol: as §1, §2

S. aureus 572 = assay: MIC, hospital MRSA strain; format: cell-based, Staphylococcus aureus; conditions: for times more active than ciprofloxacin: S. aureus 572; for MIC: hospital MRSA S. aureus 572
Protocol: as §1, §2

S. aureus 573 = assay: MIC, hospital MRSA strain; format: cell-based, Staphylococcus aureus; conditions: hospital MRSA S. aureus 573
Protocol: as §1, §2

S. aureus 585 = assay: MIC, hospital MRSA strain; format: cell-based, Staphylococcus aureus; conditions: hospital MRSA S. aureus 585
Protocol: as §1, §2

S. aureus 586 = assay: MIC, hospital MRSA strain; format: cell-based, Staphylococcus aureus; conditions: hospital MRSA S. aureus 586
Protocol: as §1, §2

Structure (SMILES) | IC50 [1] [µM] | MIC (S. aureus ATCC 25923) [µg/mL] | MIC (S. aureus ATCC 29213) [µg/mL] | MIC (S. aureus ATCC 6538) [µg/mL] | MIC (S. aureus NCTC 4163) [µg/mL] | MIC (P. aeruginosa ATCC 15442) [µg/mL] | MIC (P. aeruginosa ATCC 27853) [µg/mL] | MIC [2] [µg/mL] | MIC (S. aureus 481) [µg/mL] | MIC (S. aureus 495) [µg/mL] | MIC (S. aureus 496) [µg/mL] | MIC (S. aureus 497) [µg/mL] | MIC (S. aureus 498) [µg/mL] | MIC (S. aureus 514) [µg/mL] | MIC (S. aureus 522) [µg/mL] | MIC (S. aureus 537) [µg/mL] | MIC (S. aureus 567) [µg/mL] | MIC (S. aureus 568) [µg/mL] | MIC (S. aureus 572) [µg/mL] | MIC (S. aureus 573) [µg/mL] | other results
O=[N+]([O-])c1cc([N+]2=C(Nc3ccc(I)cc3)[S][Cu-2]23[S]C(Nc2ccc(I)cc2)=[N+]3c2ccc(Cl)c([N+](=O)[O-])c2)ccc1Cl [Compound 8, Copper (II) complex with 1-(4-iodophenyl)-3-(4-chloro-3-nitrophenyl)thiourea] | 17.8 ± 1.3 | 4 | 4 | 4 | 4 | 128 | 128 | 64 | 4 | 4 | 8 | 8 | 8 | 4 | 4 | 8 | 8 | 8 | 4 | 8 | times more active than ciprofloxacin (S. aureus 481): 64 times; times more active than ciprofloxacin (S. aureus 572): 64 times; MIC (S. aureus 585): 8 µg/mL; MIC (S. aureus 586): 8 µg/mL
O=[N+]([O-])c1cc([N+]2=C(Nc3ccc(F)c(Cl)c3)[S][Cu-2]23[S]C(Nc2ccc(F)c(Cl)c2)=[N+]3c2ccc(Cl)c([N+](=O)[O-])c2)ccc1Cl [Compound 4, Copper (II) complex with 1-(3-chloro-4-fluorophenyl)-3-(4-chloro-3-nitrophenyl)thiourea] | 21.6 ± 2.9 | 4 | 4 | 4 | 4 | 128 | 128 | 64 | 4 | 4 | 8 | 8 | 4 | 4 | 4 | 4 | 4 | 4 | 4 | 4 | times more active than ciprofloxacin (S. aureus 481): 64 times; times more active than ciprofloxacin (S. aureus 572): 64 times; MIC (S. aureus 585): 4 µg/mL; MIC (S. aureus 586): 4 µg/mL
O=[N+]([O-])c1cc([N+]2=C(Nc3ccccc3F)[S][Cu-2]23[S]C(Nc2ccccc2F)=[N+]3c2ccc(Cl)c([N+](=O)[O-])c2)ccc1Cl [Compound 7, Copper (II) complex with 1-(2-fluorophenyl)-3-(4-chloro-3-nitrophenyl)thiourea] | 9.1 ± 0.8 | 32 | 32 | 32 | 32 | >256 | 128 | 128 | 4 | 8 | 8 | 8 | 4 | 8 | 8 | 8 | 4 | 8 | 4 | 8 | times more active than ciprofloxacin (S. aureus 481): 64 times; times more active than ciprofloxacin (S. aureus 572): 64 times; MIC (S. aureus 585): 8 µg/mL; MIC (S. aureus 586): 8 µg/mL
O=[N+]([O-])c1cc([N+]2=C(Nc3ccc(Cl)c(Cl)c3)[S][Cu-2]23[S]C(Nc2ccc(Cl)c(Cl)c2)=[N+]3c2ccc(Cl)c([N+](=O)[O-])c2)ccc1Cl [Compound 5, Copper (II) complex with 1-(4-chloro-3-nitrophenyl)-3-(3,4-dichlorophenyl)thiourea] | 10.8 ± 2.6 | 32 | 32 | 32 | 32 | 128 | 128 | 64 | 16 | 16 | 32 | 16 | 16 | 32 | 16 | 16 | 16 | 16 | 16 | 16 | MIC (S. aureus 585): 16 µg/mL; MIC (S. aureus 586): 16 µg/mL
O=[N+]([O-])c1cc([N+]2=C(Nc3cccc(Br)c3)[S][Cu-2]23[S]C(Nc2cccc(Br)c2)=[N+]3c2ccc(Cl)c([N+](=O)[O-])c2)ccc1Cl [Compound 2, Copper (II) complex with 1-(3-bromophenyl)-3-(4-chloro-3-nitrophenyl)thiourea] | 22.3 ± 1.8 | 16 | 16 | 16 | 16 | 128 | 128 | 64 | 8 | 8 | 8 | 8 | 8 | 8 | 8 | 8 | 8 | 8 | 8 | 8 | MIC (S. aureus 585): 8 µg/mL; MIC (S. aureus 586): 8 µg/mL
